Laboratory results from patent US5716982A, “Retinoids and methods of use of same” (priority 1995, dated 1998).

Legend:
[1] = system: Human promyelocytic leukemia HL-60 cells; assay: Cell differentiation of HL-60 cells, nitroblue tetrazolium (NBT) reduction; format: cell-based; conditions: Homo sapiens; NBT reduction, 50% differentiation, HL-60 (Table 2); read-out: EC50
Procedure: Human promyelocytic leukemia HL-60 cells were cultured in RPMI-1640 medium supplemented by 10% heat-inactivated calf serum and 100 U/ml of penicillin plus 100 μg/ml of streptomycin. The flasks containing cells and medium were incubated in an incubator with 5% CO2 at 37° C. Log phase cells were seeded into the medium at a concentration of 1.2×10^5to 1.4×10^5 cells per ml and cultured in flasks containing 5 ml of medium. Each group consisted of three flasks. Different concentrations of coumarin-retinoids were added. At intervals following the addition of coumarin-retinoids to the cultures, a small portion of cells was removed and live cells were counted under a light microscope using a dye-exclusionmethod with trypan blue. Cell differentiation was judged in terms of morphology and nitroblue tetrazolium (NBT) reduction.
For a determination of NBT reducing activity, a portion of the coumarin-retinoid-treated cells was removed at intervals following treatment and centrifuged. After centrifugation, 0.5 ml of 0.1% NBT (containing 100 ng TPA) was added to each tube. The contents of the test tubes were then incubated for 1 hour at 37° C. Cell smears were prepared from the cell sediment and stained using the Wright-Giemsa technique. For each smear prepared, 200 cells were isolated for examination under a light microscope with an oil immersion lens. Cells stained with blue-black granules were considered NBT-positive cells. The 50% differentiation or effective concentration (ED50 or EC50) is shown in terms of molar (M) concentration of the […] tested.
(§1) The protocols of Examples 14 and 21 were used, for the NBT and MTT assays, respectively.

[2] = system: lipid peroxidation of rat liver microsome; assay: Fe/Cys induced lipid peroxidation of rat liver microsome (anti-oxidation); format: biochemical; conditions: n = 3
Procedure: Lipid peroxidation was induced by adding 1 mM FeSO4 and 10 mM cysteine to the microsome fraction of rat liver with the incubations being carried out at 37° C. for 30 minutes in a reaction mixture containing 10 mM phosphate buffer (pH 7.4). The reaction was terminated by the addition of 0.3 ml of 20% trichloroacetic acid solution. Thiobarbituric acid was then added and the mixture was boiled for 10 minutes. After cooling the test tubes under running tap water, the optical density at 532 nm was measured. Lipid peroxidation in both the treated groups and the control group was expressed in nmol MDA/mg protein. The percentage inhibition indicates the anti-oxidation properties of the coumarin retinoids tested.

HL-60 cells = assay: MTT assay in HL-60 cells; format: cell-based, human; conditions: Homo sapiens, MTT
Procedure: Human cancer cell lines (KB, A2780, MCF-7, HL-60, A549) were used. For a monolayer culture, 0.5 ml of trypsin solution ([…]) was added to the flasks for digestion. Microtiter plates (96 well) were used for the cell culture and 200 μl of cell suspension (1200 tumor cells) were placed in each well and incubated at 37° C. for 24 hours. Following the addition of the test compound, the control and treated flasks were placed in a CO2 incubator for 5 day culture. For the MTT assay, 200 μl of MTT solution (5 mg in 10 ml of phosphate buffer) plus the medium were added and incubated for another 4 hours. Following incubation, the supernatant was discarded and 200 μl of DMSO was added to each well. With a mild agitation the OD values were determined by the MR 700 Elisa at 570 nm (reference wavelength was 450 nm). The ED50 of the compound and tumor cell survival rate [formula] as percent inhibition were calculated.
as §1

fetus absorption in mice = assay: Fetus absorption in mice (anti-teratogenicity); format: in vivo, mouse
Procedure: (§2) Female mice were examined by vaginal smear the morning after being caged with male mice, and if sperm or a vaginal plug was discovered, then the mice were determined to be pregnant. The retinoids were administered at the dosage indicated starting on the seventh day of pregnancy and continued once a day for the next ten days. On the 20th day after the female mice were determined to be pregnant, they were sacrificed by cervical dislocation. Both sides of the uterus were checked and the number of living embryos, dead embryos, and absorbed embryos were counted. The living embryos were further examined for bone abnormalities.

[3] = system: bone abnormalities in mouse fetus; assay: Bone abnormalities in mouse fetus (anti-teratogenicity); format: in vivo
Procedure: as §2
After the embryos became transparent, they were dissected and their skeletons were checked by observation under a microscope.

chondrosarcoma in rats = assay: Growth of transplanted chondrosarcoma in rats; format: in vivo, rat
From the text: Transplantable chondrosarcomas obtained from Dr. Trown, Hoffman--La Roche Institute of Molecular Biology and Wistar rats obtained from the Breeding Center of Experimental Animals, Chinese Academy of Medical Sciences were used. According to the routine transplantation protocol as described in Cancer Treatment Reports 60(11):1647-1653 (1976) where the small pieces of chondrosarcoma tumor were implanted subcutaneously in the right inguinal region of rats using a trocar. Tumor-bearing rats were randomized to a control group and a treated group. Each group consisted of ten rats. The compound was given orally for 12 days at the indicated dosage. Sixty days after transplantation, the rats were sacrificed and the tumor weight was determined. The inhibition rate was calculated according to the following formula: [formula]

[4] = system: Ornithine decarboxylase (ODC); assay: Croton oil induced ornithine decarboxylase (ODC) activity in mouse epidermis; format: in vivo; conditions: single dose pretreatment, FIG. 1 (x±SD, n=3)
Procedure: ICR mice (6-8 weeks old) were pretreated with a single dose of coumarin retinoid. On the third day, the animals received a topical application of 0.2 ml of 1% croton oil in acetone. All animals were sacrificed five hours after the croton oil treatment and the epidermis was separated by a brief heat treatment at 52° C. for 30 seconds and minced in a blender. The cell suspension and broth were separated by a centrifugation at 30,000×g for 30 seconds and the supernatant was obtained. Ornithine decarboxylase (ODC) enzyme activity was determined by measuring the release of CO2 from L-(^14 C)-ornithine and expressed as nmole CO2 /30 min/mg protein and the results for coumarin retinoid I-10 and I-6 are shown in FIG. 1. […] ODC activity is a critical parameter for monitoring cancer chemoprevention or promotion.

[5] = system: Salmonella typhimurium strain TA100; assay: Anti-mutagenicity (Ames), MMS-induced his+ revertants, TA100; format: cell-based; conditions: MMS 0.5 μl/plate; for his+ -revertants/per plate, TA100: n = 3
Procedure: (§3) An antimutagenicity assay was conducted according to the method developed by Ames et al. using Salmonella typhimurium strains TA 102 and TA 100 and mammalian microsomal enzymes. Beta-naphthoflavone and phenobarbital-induced rat liver supernatant (9000×g S-9 fraction) was used as the enzyme source for metabolic activation. The night before the experiment, certified bacterial solution (assessed for its biological characteristics and donated by Professor Ames) was inoculated into petri dishes. The petri dishes were then incubated for 15 hours at 37° C. From each petri dish, 0.1 ml of the bacterial solution was removed and added to sterile test tubes. To these test tubes, 0.1 ml of different concentrations of coumarin retinoids and 0.5 ml of either S-9 mixed solution or phosphate buffer were then added. The final solution for each test tube was incubated in a water bath at 37° C. for 20 minutes before adding 2 ml of agar solution. After thorough mixing, the solution was transferred into petri dishes and incubated once again at 37° C. for 48 hours. After incubation, the number of colonies in each petri dish were counted. The revertant numbers of the bacteria in control and treated groups were compared and the inhibition rate was calculated.

[6] = system: Salmonella typhimurium strain TA102; assay: Anti-mutagenicity (Ames), MMS-induced his+ revertants, TA102; format: cell-based; conditions: MMS 0.5 μl/plate; for his+ -revertants/per plate, TA102: n = 3
Procedure: as §3

[7] = system: human acute myeloid leukemia (AML), neuroblastoma, teratocarcinoma, melanoma, and rat rhabdomyosarcoma cells; conditions: Smith et al. 1992; cited from earlier work

CC(=O)c1cc2ccc(OC(=O)/C=C(C)/C=C/C=C(C)/C=C/C3=C(C)CCCC3(C)C)c(C(=O)O)c2oc1=O [Compound I-5]
EC50 [1]: 280 nM | Lipid Peroxidation ([2]; 1 μM): 2.19 ± 0.13 μM MDA/mg protein | IC50 (HL-60 cells; 120 h, HL-60 (Table 12), read-out: ED50 (the source's name)): 8500 nM | inhibition at 10 µM (HL-60 cells; 10^-5 M, HL-60): 51.6% | inhibition at 1 µM (HL-60 cells; 10^-6 M, HL-60): 34 ± 7.1% | inhibition at 0.1 µM (HL-60 cells; 10^-7 M, HL-60): 11.5 ± 4.2%

CC1=C(/C=C/C(C)=C/C=C/C(C)=C/C(=O)Nc2ncnc3c2ncn3C(=O)/C=C(C)/C=C/C=C(C)/C=C/C2=C(C)CCCC2(C)C)C(C)(C)CCC1 [II-A]
Implanted Number (fetus absorption in mice; 20 mg/kg, 12 pregnant mice): 141 | Absorbed Number (fetus absorption in mice; 20 mg/kg, 12 pregnant mice, 141 implanted): 10 | Implanted Number (fetus absorption in mice; 40 mg/kg, 15 pregnant mice): 181 | Absorbed Number (fetus absorption in mice; 40 mg/kg, 15 pregnant mice, 181 implanted): 17 | Cleft Palate (%) ([3]; 20 mg/kg): 0% | Delayed Calcification (%), Occipital ([3]; 20 mg/kg): 7.6% | Delayed Calcification (%), Sternum ([3]; 20 mg/kg): 9.0% | Cleft Palate (%) ([3]; 40 mg/kg): 0% | Delayed Calcification (%), Occipital ([3]; 40 mg/kg): 7.2% | Delayed Calcification (%), Sternum ([3]; 40 mg/kg): 7.2% | Inhibition rate (%) (chondrosarcoma in rats; 2 mg/kg ×10): 49.5% | Tumor Weight (chondrosarcoma in rats; 2 mg/kg ×10): 5.4 grams | Animals, final (chondrosarcoma in rats; 2 mg/kg ×10, 10 animals initial): 9 | Animals, final (chondrosarcoma in rats; 5 mg/kg ×10, 10 animals initial): 9

CC(=O)c1cc2c(OC(=O)/C=C(C)/C=C/C=C(C)/C=C/C3=C(C)CCCC3(C)C)cc(OC(=O)/C=C(C)/C=C/C=C(C)/C=C/C3=C(C)CCCC3(C)C)cc2oc1=O [Compound I-10]
EC50 [1]: 13 nM | inhibition of croton oil induced ODC activity [4]: significantly inhibited the ODC activity induced by croton oil | Delayed Calcification, Occipital delay/fetus ([3]; 20 mg/kg): 22/66 | Delayed Calcification, Sternum delay/fetus ([3]; 20 mg/kg): 14/66 | Delayed Calcification, Occipital delay/fetus ([3]; 40 mg/kg): 15/81 | Delayed Calcification, Sternum delay/fetus ([3]; 40 mg/kg): 21/81 | Animals, final (chondrosarcoma in rats; 5 mg/kg p.o., 12 days, 10 animals initial): 10 | Inhibition rate (%) (chondrosarcoma in rats; 10 mg/kg p.o.): 9.8% | Animals, final (chondrosarcoma in rats; 10 mg/kg p.o., 12 days, 10 animals initial): 9 | Animals, final (chondrosarcoma in rats; 20 mg/kg p.o., 12 days, 10 animals initial): 9 | Inhibition rate (%) (chondrosarcoma in rats; 20 mg/kg p.o., P < 0.05): 42.2%

CC(=O)c1cc2cc(Cl)c(OC(=O)/C=C(C)/C=C/C=C(C)/C=C/C3=C(C)CCCC3(C)C)cc2oc1=O [Compound I-6]
EC50 [1]: 600 nM | inhibition of croton oil induced ODC activity [4]: significantly inhibited the ODC activity induced by croton oil | Lipid Peroxidation ([2]; 2 μM): 2.16 ± 0.18 μM MDA/mg protein | Lipid Peroxidation ([2]; 20 μM): 2.13 ± 0.19 μM MDA/mg protein | Inhibition (%), TA100 ([5]; 0.1 mg/plate): 12.8% | his+ -revertants/per plate, TA100 ([5]; 0.1 mg/plate): 971.3 ± 102.7 revertants/per plate | Inhibition (%), TA100 ([5]; 0.5 mg/plate): 15.5% | his+ -revertants/per plate, TA100 ([5]; 0.5 mg/plate): 947.3 ± 60.3 revertants/per plate | Inhibition (%), TA102 ([6]; 0.1 mg/plate): 13.8% | his+ -revertants/per plate, TA102 ([6]; 0.1 mg/plate): 1560 ± 40.0 revertants/per plate | Inhibition (%), TA102 ([6]; 0.5 mg/plate): 26.6% | his+ -revertants/per plate, TA102 ([6]; 0.5 mg/plate): 1375 ± 241.5 revertants/per plate

CC1=C(/C=C/C(C)=C/C=C/C(C)=C/C(=O)O)C(C)(C)CCC1 [All Trans RA, all-trans-retinoic acid, reference compound]
Implanted Number (fetus absorption in mice; 15 mg/kg, 15 pregnant mice): 186 | Delayed Calcification, Occipital number/fetus number ([3]; 10 mg/kg): 16/16 | Delayed Calcification, Sternum number/fetus number ([3]; 10 mg/kg): 16/16 | Cleft Palate (%) ([3]; 15 mg/kg): 48% | Delayed Calcification (%), Occipital ([3]; 15 mg/kg): 96.0% | Delayed Calcification (%), Sternum ([3]; 15 mg/kg): 71.0% | Delayed Calcification, Occipital delay/fetus ([3]; 101 mg/kg (so in the source)): 6/16 | Delayed Calcification, Sternum delay/fetus ([3]; 101 mg/kg (so in the source)): 16/16 | cell differentiation [7]: induces cell differentiation in some human acute myeloid leukemia (AML), neuroblastoma, teratocarcinoma, melanoma, and rat rhabdomyosarcoma cells
